Tests used:
R441A MtPMT = format: cell-based, M. tuberculosis

SMILES: Cl.N=C(N)N [guanidine chloride, guanidine hydrochloride]
- restored FasC mannosylation, level of the wild type MtPMT (R441A MtPMT): ~ 25 ± 5%

SMILES: c1c[nH]cn1 [imidazole]
- restored FasC mannosylation, level of the wild type MtPMT (R441A MtPMT): ~ 25 ± 5%

SMILES: CC(=O)[O-].[Na+] [sodium acetate]
- chemical complementation of inactive D176A mutant (D176A MtPMT): ineffective
- chemical complementation of inactive D74A mutant (D74A MtPMT): ineffective

SMILES: [N-]=[N+]=[N-].[Na+] [sodium azide]
- chemical complementation of inactive D176A mutant (D176A MtPMT): ineffective
- chemical complementation of inactive D74A mutant (D74A MtPMT): ineffective

Source: publication PMC12331936, “Structural Insights into the Protein Mannosyltransferase from Mycobacterium tuberculosis reveal a WW-Domain-Like Protein Motif in Bacteria” (Communications Biology, 2025)
